Test results taken from patent publication US11052092B2, “N-{[2-(piperidin-1-yl)phenyl](phenyl)methyl}-2-(3-oxo-3,4-dihydro-2H-1,4-benzoxazin-7-yl)acetamide derivatives and related compounds as ROR-gamma modulators for treating autoimmune diseases” (Genfit, priority 2017, dated 2021).

Tests used:
human RORγt = molecular target: T1, human RORγt (Homo sapiens, UniProt P51449); experiment: RORE Luciferase/RORγt transactivation assay; format: cell-based; conditions: COS-7 cells transfected with human IL-17 promoter luciferase reporter and RORγt plasmid; 20 h with compound; read-out: IC50, RORγt activity inhibition
T1 construct: the full-length cDNA of human RORγt; expressed in transfected cells; host or cells: COS-7 (monkey kidney)
T1 sequence (P51449 1-497 isoform P51449-2): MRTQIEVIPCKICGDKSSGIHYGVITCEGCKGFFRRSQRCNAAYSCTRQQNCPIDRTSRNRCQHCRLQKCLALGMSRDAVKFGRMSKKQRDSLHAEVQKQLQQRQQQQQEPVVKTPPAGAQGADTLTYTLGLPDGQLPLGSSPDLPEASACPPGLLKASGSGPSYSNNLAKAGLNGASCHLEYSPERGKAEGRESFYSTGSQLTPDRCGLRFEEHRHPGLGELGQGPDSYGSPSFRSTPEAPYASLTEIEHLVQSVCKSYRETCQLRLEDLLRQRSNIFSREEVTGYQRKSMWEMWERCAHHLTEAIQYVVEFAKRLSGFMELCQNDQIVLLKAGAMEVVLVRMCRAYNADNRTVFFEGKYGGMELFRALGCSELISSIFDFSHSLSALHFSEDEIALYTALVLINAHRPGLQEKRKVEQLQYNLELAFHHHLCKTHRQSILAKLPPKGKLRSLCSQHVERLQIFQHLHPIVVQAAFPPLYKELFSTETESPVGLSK
Method in brief: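 COS-7 cells were transiently co-transfected with a human IL-17 promoter (RORE/CNS)–luciferase reporter and a RORγt expression plasmid, then seeded at 10000 cells/well in serum-free, phenol red-free DMEM. Compounds were added at 0.3% DMSO final. Luciferase was read with Steady-Glo, and IC50 and Emax were derived.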

[1] = tested on: Murine EL-4 lymphoma cell line overexpressing human RORγt; experiment: IL-17 secretion from EL4 murine lymphoma; format: cell-based; conditions: Mus musculus; human RORγt-transfected EL4 cells, PMA (10 ng/mL) and ionomycin (1 μM), 24 h; read-out: IC50, IL-17 secretion inhibition
Method: Murine EL-4 lymphoma cell line overexpressing human RORγt was used in this functional assay to assess compound ability to inhibit IL-17 cytokine secretion.
EL-4 cells are maintained in a standard culture medium RPMI supplemented with 10% fetal calf serum, 1% sodium pyruvate, 1% essential amino acids and 1% antibiotics at 37° C. in a humidified atmosphere of 5% CO02 and 95% air. Culture medium was changed every 2 days. EL4 cells were transfected with a plasmid encoding hRORγt (sequence identical to published sequence NM 001001523). […] Briefly, 1 μg of DNA/1 million cells was served to transfect EL-4 cells. Cell/DNA suspension was transferred into certified cuvette and the electroporation of RORγt plasmid was carried out using appropriate Nucleofector® program.
Cells were seeded in 96 well plates at a density of 150000 cells/I well then treated with compounds of this invention at indicated concentrations and incubated for 24 hours at 37° C. in a humidified atmosphere of 5% C02 and 95% air. EL-4 cells were pretreated with test compounds (RORγ modulators) and stimulated with PMA (10 ng/mL) and ionomycin (1 μM final concentration) in the presence of test compound concentrations for additional 24 h at 37° C. in a humidified atmosphere of 5% C02 and 95% air. Subsequently, supernatants were collected (after centrifugation at 300 g for 10 minutes) to determine the concentrations of IL-17 by HTRF (CisBio, France) or ELISA (R&D Systems Europe) according to the manufacturer's protocols.

| SMILES | IC50 (human RORγt) [nM] | IC50 [1] [nM] |
| --- | --- | --- |
| Cc1ccc(C(NC(=O)Cc2ccc3c(c2)C(C)(O)C(=O)N3C)c2ccc(C)o2)c(N2CCCCC2)c1 (stereo not drawn) [Cpd. 39, 2-(3-hydroxy-1,3-dimethyl-2-oxo-2,3-dihydro-1H-indol-5-yl)-N-{[4-methyl-2-(piperidin-1-yl)phenyl](5-methylfuran-2-yl)methyl}acetamide] | 100 to 1000 | 100 to 1000 |
| Cc1ccc(C(NC(=O)Cc2ccc3[nH]cc(C(=O)CS(C)(=O)=O)c3c2)c2ccc(C)o2)c(C)c1 (stereo not drawn) [Cpd. 107, N-[(2,4-dimethylphenyl)(5-methylfuran-2-yl)methyl]-2-[3-(2-methanesulfonylacetyl)-1H-indol-5-yl]acetamide] | 100 to 1000 | 1000 to 10000 |
| Cc1ccc(C(NC(=O)Cc2cc(C)c3c(c2)CC(=O)N3)c2ccc(C)o2)c(N2CCCCC2)c1 (stereo not drawn) [Cpd. 54, N-{[4-methyl-2-(piperidin-1-yl)phenyl](5-methylfuran-2-yl)methyl}-2-(7-methyl-2-oxo-2,3-dihydro-1H-indol-5-yl)acetamide] | 10 to 100 | < 100 |
| Cc1ccc(C(NC(=O)Cc2ccc3c(c2)CCC(=O)N3)c2ccc(C)o2)c(Br)c1 (stereo not drawn) [Cpd. 36, N-[(2-bromo-4-methylphenyl)(5-methylfuran-2-yl)methyl]-2-(2-oxo-1,2,3,4-tetrahydroquinolin-6-yl)acetamide] | 100 to 1000 | 100 to 1000 |
| Cc1ccc(C(NC(=O)Cc2ccc3c(ccn3S(C)(=O)=O)c2)c2ccc(C)o2)c(N2CCCCC2)c1 (stereo not drawn) [Cpd. 106, 2-(1-methanesulfonyl-1H-indol-5-yl)-N-{[4-methyl-2-(piperidin-1-yl)phenyl](5-methylfuran-2-yl)methyl}acetamide] | 10 to 100 | 100 to 1000 |

Further lines, results first:

| IC50 (human RORγt) [nM] | IC50 [1] [nM] | SMILES |
| --- | --- | --- |
| 10 to 100 | < 100 | Cc1ccc(C(NC(=O)Cc2ccc3c(c2)OCC(=O)N3)c2ccc(C)o2)c(N2CCCCC2)c1 (stereo not drawn) [Cpd. 35, N-{[4-methyl-2-(piperidin-1-yl)phenyl](5-methylfuran-2-yl)methyl}-2-(3-oxo-3,4-dihydro-2H-1,4-benzoxazin-7-yl)acetamide] |
| 10 to 100 | 100 to 1000 | Cc1ccc(C(NC(=O)Cc2ccc3c(c2)OCC(=O)N3)c2ccc(C)o2)c(Br)c1 (stereo not drawn) [Cpd. 31, N-[(2-bromo-4-methylphenyl)(5-methylfuran-2-yl)methyl]-2-(3-oxo-3,4-dihydro-2H-1,4-benzoxazin-7-yl)acetamide] |
| 1000 to 10000 | 1000 to 10000 | COc1ccc(C(NC(=O)Cc2ccc3[nH]c(=O)cc(C)c3c2)c2ccccc2)c(N2CCCCC2)c1 (stereo not drawn) [Cpd. 10, N-{[4-methoxy-2-(piperidin-1-yl)phenyl](phenyl)methyl}-2-(4-methyl-2-oxo-1,2-dihydroquinolin-6-yl)acetamide] |
| 100 to 1000 | 1000 to 10000 | Cc1ccc(C(NC(=O)Cc2ccc3c(c2)CS(=O)(=O)N3)c2ccc(C)o2)c(Br)c1 (stereo not drawn) [Cpd. 28, N-[(2-bromo-4-methylphenyl)(5-methylfuran-2-yl)methyl]-2-(2,2-dioxo-1,3-dihydro-2,1-benzothiazol-5-yl)acetamide] |
| 10 to 100 | 100 to 1000 | CC(=O)N1CCc2cc(C3(C(=O)NC(c4ccc(C)o4)c4ccc(C)cc4C)CC3)ccc21 (stereo not drawn) [Cpd. 126, 1-(1-acetyl-2,3-dihydro-1H-indol-5-yl)-N-[(2,4-dimethylphenyl)(5-methylfuran-2-yl)methyl]cyclopropane-1-carboxamide] |
| 10 to 100 | < 100 | Cc1ccc(C(NC(=O)C2(c3ccc4[nH]ccc4c3)CC2)c2ccc(C)o2)c(C)c1 (stereo not drawn) [Cpd. 108, N-[(2,4-dimethylphenyl)(5-methylfuran-2-yl)methyl]-1-(1H-indol-5-yl)cyclopropane-1-carboxamide] |
| 10 to 100 | < 100 | Cc1ccc(C(NC(=O)C2(c3ccc4[nH]cc(CCO)c4c3)CC2)c2ccc(Cl)o2)c(C)c1 (stereo not drawn) [Cpd. 62, N-[(5-chlorofuran-2-yl)(2,4-dimethylphenyl)methyl]-1-[3-(2-hydroxyethyl)-1H-indol-5-yl]cyclopropane-1-carboxamide] |
